These results are taken from US9597417B2, “Compositions and methods to evaluate hepatobiliary/gastrointestinal health, enterohepatic circulation, and drug interactions” (The United States of America as represented by the …, priority 2013, dated 2017).

The term Ki denotes the equilibrium dissociation constant of an inhibitor or competing ligand from its target. Low values mean a stronger hold on the target, high ones a looser hold on the target. For orientation: solubility means the dissolved amount per volume that the medium holds. As a reminder, the Km is the substrate concentration at which the rate is half of its maximum.

Values after ≈ are worked out from the molar mass of the structure shown. Values joined by “and” are separate entries in the source; they are usually repeats but may differ in a detail not shown here. Equal entries are not always repeated. “Also recorded” adds a separate entry of the source. Where two headings read alike, the source gives them in different places.

The nature of series [1]: Murine gallbladder imaging (mouse 6), 19F MRI and LC/MS/MS. Format: in vivo, C57BL/6 mice. The following applies: for concentration at 8.2 h: male, mouse 6, after imaging.
Series [2] deals with T1, human Na+/taurocholate cotransporting polypeptide (hNTCP) (Homo sapiens, UniProt Q14973).
T1 sequence (Q14973 1-349): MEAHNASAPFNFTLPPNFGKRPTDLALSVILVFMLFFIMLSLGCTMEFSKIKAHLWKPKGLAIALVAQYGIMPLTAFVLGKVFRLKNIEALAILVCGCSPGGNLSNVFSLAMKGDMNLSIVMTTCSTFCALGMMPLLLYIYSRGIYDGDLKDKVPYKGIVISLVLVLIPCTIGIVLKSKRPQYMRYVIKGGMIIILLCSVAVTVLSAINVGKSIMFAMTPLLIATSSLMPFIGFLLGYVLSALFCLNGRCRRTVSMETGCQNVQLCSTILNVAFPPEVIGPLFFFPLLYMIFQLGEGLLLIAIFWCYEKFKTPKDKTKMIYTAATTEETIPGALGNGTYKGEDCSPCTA
The series is described as follows: Inhibition of taurocholate uptake by NTCP in stably transfected NTCP-HEK cells. Format: cell-based.

Series [3] addresses T2, hNTCP (sodium-independent passive uptake) (Homo sapiens, UniProt Q14973).
T2 sequence (Q14973 1-349): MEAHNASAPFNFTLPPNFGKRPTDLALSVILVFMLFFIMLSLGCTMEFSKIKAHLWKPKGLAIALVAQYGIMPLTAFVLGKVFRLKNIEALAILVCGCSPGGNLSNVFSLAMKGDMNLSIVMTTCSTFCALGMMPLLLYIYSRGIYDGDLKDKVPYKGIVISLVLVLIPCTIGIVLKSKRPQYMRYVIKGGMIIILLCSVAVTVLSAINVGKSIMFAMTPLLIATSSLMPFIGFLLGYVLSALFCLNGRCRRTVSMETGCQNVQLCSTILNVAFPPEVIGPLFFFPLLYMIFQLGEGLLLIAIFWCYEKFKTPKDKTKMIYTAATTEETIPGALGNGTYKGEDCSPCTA
Put plainly: Uptake of substrate by NTCP in NTCP-HEK cells. The following applies: human; NTCP-HEK cells, sodium free buffer; read-out: passive permeability (Pp). The format is cell-based.

Series [4] addresses T1, human Na+/taurocholate cotransporting polypeptide (hNTCP). Put plainly: Uptake of substrate by NTCP in NTCP-HEK cells. Format: cell-based. The following applies: NTCP uptake.
A short description of series [5]: In vitro stability in 0.1 M HCl, rat plasma, rat liver s9 fraction and simulated intestinal fluid. To be noted: 37° C.
In series [6] the target is T3, human apical sodium dependent bile acid transporter (hASBT) (Homo sapiens, UniProt Q12908).
T3 sequence (Q12908 1-348): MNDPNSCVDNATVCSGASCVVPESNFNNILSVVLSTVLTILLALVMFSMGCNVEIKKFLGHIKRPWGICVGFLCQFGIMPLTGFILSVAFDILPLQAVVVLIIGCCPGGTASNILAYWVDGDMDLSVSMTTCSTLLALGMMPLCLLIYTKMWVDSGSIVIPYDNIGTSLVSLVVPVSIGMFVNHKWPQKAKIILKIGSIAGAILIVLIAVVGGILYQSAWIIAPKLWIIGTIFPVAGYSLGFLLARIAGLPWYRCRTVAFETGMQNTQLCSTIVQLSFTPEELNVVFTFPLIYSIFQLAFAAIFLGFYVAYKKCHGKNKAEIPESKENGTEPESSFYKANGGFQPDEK
The series is described as follows: Inhibition of taurocholate uptake by ASBT in stably transfected ASBT-MDCK cells. Format: cell-based.

Another series can be described thus: Solubility in buffer. Format: physicochemical. To be noted: phosphate buffer, aqueous buffer, thermodynamic from solid; pH 6.8, room temperature, overnight, n=3, ±SEM. As for the experimental part:
Five (5) mg of compound was added to silanized centrifuge tubes containing 100 μL phosphate buffer at pH 6.8 (n=3), shaken, and left overnight at room temperature. […] Supernatant was diluted 10,000-fold with 1:1 ACN:water and analyzed by LC/MS/MS.

Series [7] addresses choloylglycine hydrolase from Clostridium perfringens (Clostridium perfringens, UniProt P54965). The following applies: 2 mM compound, 15 U CGH, pH 5.6, 37° C., ±SEM.
Series [8] deals with T3, human apical sodium dependent bile acid transporter (hASBT). The series is described as follows: Uptake of substrate by ASBT in ASBT-MDCK cells. The format is cell-based. The following applies: ASBT uptake.
The target in series [9] is T4, hASBT (sodium-independent passive uptake) (Homo sapiens, UniProt Q12908).
T4 sequence (Q12908 1-348): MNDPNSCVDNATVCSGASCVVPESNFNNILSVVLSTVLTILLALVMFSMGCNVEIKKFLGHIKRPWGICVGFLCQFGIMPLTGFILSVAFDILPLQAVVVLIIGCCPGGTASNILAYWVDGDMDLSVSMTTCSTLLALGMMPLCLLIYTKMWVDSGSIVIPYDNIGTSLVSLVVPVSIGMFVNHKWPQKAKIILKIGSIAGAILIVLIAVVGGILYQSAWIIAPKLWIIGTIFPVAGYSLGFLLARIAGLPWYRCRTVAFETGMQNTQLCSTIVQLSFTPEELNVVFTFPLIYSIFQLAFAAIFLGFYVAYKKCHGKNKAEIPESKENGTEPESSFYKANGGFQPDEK
Put plainly: Uptake of substrate by ASBT in ASBT-MDCK cells. The format is cell-based. To be noted: human; ASBT-MDCK cells, sodium free buffer; read-out: passive permeability (Pp).

Series [10] can be described thus: Oral disposition characterization: pilot study in mice. To be noted: for concentration at 7 h: male, C57BL/6, mouse, po.
Series [11] can be described thus: Disposition in Asbt knockout (Slc10a2-/-) and wild-type mice. Format: in vivo. The following applies: for gallbladder concentration / concentration at 7 h: n=4, 7 h after gavage 150 mg/kg, ±SEM; for gallbladder concentration: LC/MS/MS; for concentration at 7 h: mouse, oral, 150 mg/kg. Here is the method:
Asbt-deficient (Slc10a2-/-) mice were obtained from a colony maintained at the Wake Forest School of Medicine. […] Gallbladder, liver, and plasma samples were collected at 7 h after dosing, and tissues were processed as described above and analyzed by LC/MS/MS.

Series [12] concerns the target T1, human Na+/taurocholate cotransporting polypeptide (hNTCP). To be noted: literature / historic data, same cell line; read-out: NTCP Km; cited from earlier work.
Substrate in series [13]: [H][C@@]12C[C@H](O)CC[C@]1(C)[C@@]1([H])C[C@H](O)[C@@]3(C)[C@@]([H])(CC[C@]3([H])C(C)CCC(=O)N(CCNC(=O)C(F)(F)F)CC(=O)O)[C@]1([H])[C@H](O)C2
Put plainly: Uptake of substrate by NTCP in NTCP-HEK cells. The format is cell-based, human. The following applies: other: uptake, 0-200 uM donor, hNTCP-HEK cells, ±SEM; 37.0 °C.

Substrate in series [14]: [H][C@@]12C[C@H](O)CC[C@]1(C)[C@@]1([H])C[C@H](O)[C@@]3(C)[C@@]([H])(CC[C@]3([H])C(C)CCC(=O)N(CCNC(=O)C(F)(F)F)CC(=O)O)[C@]1([H])[C@H](O)C2
The series is described as follows: Uptake of substrate by ASBT in ASBT-MDCK cells. Format: cell-based, human. To be noted: other: uptake, 0-200 uM donor, hASBT-MDCK cells, ±SEM; 37.0 °C.

Where [15] appears, read: individual mice 1-5, 7 h after oral 150 mg/kg, LC/MS/MS, 150 mg/kg.

Sequence of choloylglycine hydrolase from Clostridium perfringens (P54965 whole entry, looked up): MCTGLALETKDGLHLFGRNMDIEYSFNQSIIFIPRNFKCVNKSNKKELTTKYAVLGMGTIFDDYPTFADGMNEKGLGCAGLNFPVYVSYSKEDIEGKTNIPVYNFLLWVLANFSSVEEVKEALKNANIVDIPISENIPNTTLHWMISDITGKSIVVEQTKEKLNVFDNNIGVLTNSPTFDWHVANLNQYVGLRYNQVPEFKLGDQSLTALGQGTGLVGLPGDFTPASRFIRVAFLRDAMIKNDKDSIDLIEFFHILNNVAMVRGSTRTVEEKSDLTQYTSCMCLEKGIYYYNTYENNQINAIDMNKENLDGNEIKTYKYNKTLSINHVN

Take `CC(CCC(=O)N(CCNC(=O)C(F)(F)F)CC(=O)O)[C@H]1CC[C@H]2[C@@H]3[C@H](O)C[C@@H]4C[C@H](O)CC[C@]4(C)[C@H]3C[C@H](O)[C@]12C` (stereo partly shown) [CA-sar-TFMA, Cholic acid-sarcosine-trifluoro-N-methyl-acetamide]: the concentration at 8.2 h in series [1] (C57BL/6, liver, oral 150 mg/kg, read-out: liver concentration) was found to be 7660 nM; in series [1] (C57BL/6, plasma, oral 150 mg/kg, read-out: plasma concentration) it was 870 nM. Besides, the “LC/MS/MS gallbladder concentration, fold lower than by MRI” value in series [1] (mouse 6) worked out at 2.3 fold. Moreover, in [1] (mouse 6, 6.2-8.2 h after oral gavage of 150 mg/kg), the “gallbladder concentration by 19F MRI (gallbladder ROI normalized to phantom ROI)” value is reported as 34.2 mM. The “gallbladder concentration by LC/MS/MS” value in [1] (mouse 6, after imaging and euthanasia, oral 150 mg/kg) turned out to be 14.8 mM. Besides, the figures for the Ki in series [2] and in series [6] were 2.64 ± 0.55 µM and 21.5 ± 4 µM, respectively. Further, the Papp turned out to be 0.043 ×10⁻⁶ cm/s in series [3] and 0.21 ×10⁻⁶ cm/s in series [9]. For the same molecule, the “normVmax (normalized to taurocholate Vmax on the same occasion)” value is on record as 0.24 in series [4] and 1.50 in series [8]. Also, the “stability: concentration at t=4 h vs initial concentration” value is “no evidence of degradation; also recorded: not different from initial concentration” in series [5] (0.1 M HCl, 5 μM); “no evidence of degradation; also recorded: not different from initial concentration” in series [5] (rat plasma, 5 μM); “no evidence of degradation; also recorded: not different from initial concentration” in series [5] (simulated intestinal fluid with pancreatic enzymes (SIF), pH 7.5, 5 μM). Moreover, the concentration in solution in the series “Solubility in buffer” (solubility) was 33500 ± 1600 µM (≈ 20.3 mg/mL). The “compound remaining after 4 h” value in series [7] is 103.9±2.9%. For the same molecule, in [10] (setting [15]), the “Gallbladder Conc.” value was 16.5 mM (2×) and 25.0 mM and 17.2 mM and 16.9 mM. Also, in [10] (setting [15]), the “Liver Conc.” value is 20.8 µM and 16.0 µM and 12.9 µM and 9.5 µM and 13.5 µM. For the same molecule, the “Plasma Conc.” value in [10] (setting [15]) was 1490 nM and 1810 nM and 940 nM and 1470 nM. In addition, the concentration at 7 h in series [10] (liver, 150 mg/kg, Average liver concentration, mean of mice 1-5, 7 h after oral 150 mg/kg, ±SEM) came to 14500 ± 600 nM; in [10] (plasma, 150 mg/kg, Average plasma concentration, mean of mice 1-5, 7 h after oral 150 mg/kg, ±SEM), 1400 ± 140 nM; in series [10] (plasma, 150 mg/kg, Plasma Conc., individual mice 1-5, 7 h after oral 150 mg/kg, LC/MS/MS), 1310 nM; in [11] (liver, Asbt knockout mice, read-out: Liver concentration), 900 ± 30 nM; in series [11] (liver, WT mice, read-out: Liver concentration), 4970 ± 1470 nM; in [11] (plasma, Asbt knockout mice, read-out: Plasma concentration) it was 220 ± 90 nM. The concentration at 7 h in series [11] (plasma, WT mice, read-out: Plasma concentration) was determined as 3800 ± 4150 nM. Besides, the Average gallbladder concentration in [10] (mean of mice 1-5, 7 h after oral 150 mg/kg, ±SEM) turned out to be 18.4 ± 1.6 mM. In addition, in [10] (on average, 7 h after oral 150 mg/kg), the “accumulation in liver and plasma, fold lower than in gallbladder” value was “at least 1,000 fold”. Moreover, in [11] (7 h after gavage 150 mg/kg), the “gallbladder concentration, fold higher in WT than in knockout mice” value amounted to 16.1 fold. For the same molecule, the gallbladder concentration in series [11] (Asbt knockout (Slc10a2-/-) mice) was determined as 0.41 ± 0.14 mM; in series [11] (wild-type (WT) mice), 6.61 ± 0.98 mM.

On to `C[C@H](CCC(=O)NCCS(=O)(=O)O)[C@H]1CC[C@H]2[C@@H]3[C@H](O)C[C@@H]4C[C@H](O)CC[C@]4(C)[C@H]3C[C@H](O)[C@]12C` [taurocholate], for which the Michaelis-Menten constant (Km) in series [12] is 5.31 µM.

B1: human Na+/taurocholate cotransporting polypeptide (hNTCP) (Homo sapiens) (protein)
chain: MEAHNASAPFNFTLPPNFGKRPTDLALSVILVFMLFFIMLSLGCTMEFSKIKAHLWKPKGLAIALVAQYGIMPLTAFVLGKVFRLKNIEALAILVCGCSPGGNLSNVFSLAMKGDMNLSIVMTTCSTFCALGMMPLLLYIYSRGIYDGDLKDKVPYKGIVISLVLVLIPCTIGIVLKSKRPQYMRYVIKGGMIIILLCSVAVTVLSAINVGKSIMFAMTPLLIATSSLMPFIGFLLGYVLSALFCLNGRCRRTVSMETGCQNVQLCSTILNVAFPPEVIGPLFFFPLLYMIFQLGEGLLLIAIFWCYEKFKTPKDKTKMIYTAATTEETIPGALGNGTYKGEDCSPCTA
As for B1, the Km in [13] was found to be 2.19 ± 0.63 µM.

B2: human apical sodium dependent bile acid transporter (hASBT) (Homo sapiens) (protein)
chain: MNDPNSCVDNATVCSGASCVVPESNFNNILSVVLSTVLTILLALVMFSMGCNVEIKKFLGHIKRPWGICVGFLCQFGIMPLTGFILSVAFDILPLQAVVVLIIGCCPGGTASNILAYWVDGDMDLSVSMTTCSTLLALGMMPLCLLIYTKMWVDSGSIVIPYDNIGTSLVSLVVPVSIGMFVNHKWPQKAKIILKIGSIAGAILIVLIAVVGGILYQSAWIIAPKLWIIGTIFPVAGYSLGFLLARIAGLPWYRCRTVAFETGMQNTQLCSTIVQLSFTPEELNVVFTFPLIYSIFQLAFAAIFLGFYVAYKKCHGKNKAEIPESKENGTEPESSFYKANGGFQPDEK
For the molecule B2, the Km in [14] came to 73.2 ± 7.0 µM.
